Converted amounts (≈) assume the structure as drawn. Structures can show the parent of a compound that is named as a salt. Where two headings read alike, the source gives them in different places.

Common to all, as to format: physicochemical
Data set [1] can be described thus: Mini-dissolution in FaSSIF medium pH 6.5 at 37° C. The settings on record: for Dissolution levels in FaSSIF pH 6.5: 37° C.; for Dissolution level (2 h) in FaSSIF, factor higher than A1: compared to crystalline neat form A1. The procedure:
Approximately 10-20 mg of 1-(4-{[6-Amino-5-(4-phenoxy-phenyl)-pyrimidin-4-ylamino]-methyl}-4-fluoro-piperidin-1-yl)-propenone were weighed into glass vials. 7 mL of FaSSIF medium (pH 6.5, prewarmed to 37° C.) were added and the suspension was shaken at 450 rpm at 37° C. After 30 min, 60 min and 120 min, 1 mL suspension was withdrawn and filtered through a 0.2 μm syringe filter. Clear filtrate was analysed by HPLC after suitable dilution to measure the amount of API dissolved.

Data set [2] in a line: Water Vapour Sorption isotherm (25° C.), DVS system from SMS. The procedure:
DSC scan of form A1 was acquired on a Mettler-Toledo DSC 1 with a heating rate of 5 K/min, using nitrogen purge gas at 50 mL/min. TGA scan of form A1 was acquired on a Mettler-Toledo TGA 851 with a heating rate of 5 K/min, using nitrogen purge gas at 50 mL/min. […] Eur. Criteria (section 5.11.). Water Vapour Sorption isotherm was acquired on a DVS-Intrinsic system from SMS. […] Dissolution level of form A1 in Fasted-State Simulated Intestinal Fluid [FaSSIF, pH 6.5] at 37° C. was determined to be approx. 17 μg/mL after 2 h (see example 7). […]
All forms were characterized according to standard methods which are found in e.g. Rolf Hilfiker, ‘Polymorphism in the Pharmaceutical Industry’, Wiley-VCH. Weinheim 2006 (Chapter 6: X-Ray Diffraction, Chapter 6: Vibrational Spectroscopy, Chapter 3: Thermal Analysis, Chapter 9: Water Vapour Sorption, and references therein); and H. G. Brittain, ‘Polymorphism in Pharmaceutical Solids, Vol. 95, Marcel Dekker Inc., New York 1999 (Chapter 6 and references therein).

The nature of data set [3]: Thermodynamic solubility (24 h) at 37° C. of free base forms. The following applies: for solubility thermodynamic at 24 h: 37 °C, thermodynamic from solid. On the procedure:
Approximately 10-20 mg of 1-(4-{[6-Amino-5-(4-phenoxy-phenyl)-pyrimidin-4-ylamino]-methyl}-4-fluoro-piperidin-1-yl)-propenone were weighed into a 4 mL glass vial. 1 mL of FaSSIF medium (pH 6.5) or USP Phosphate buffer pH 7.4 was added and the suspension was shaken for 24 h at 450 rpm at 37° C. After 1 h, 6 h and after 24 h the vials were checked for presence of undissolved compound and the pH was measured. If necessary, the pH was adjusted after 1 h and 6 h. The solid liquid separation was carried out using 1 mL syringe and 0.2 μm syringe filter. Clear filtrate was analysed by HPLC after suitable dilution to measure the amount of API dissolved.

Where [4] appears, read: relative humidity range 0-80% rh.
[5] abbreviates: relative humidity range 90-98% rh.

In the case of `C=CC(=O)N1CCC(F)(CNc2ncnc(N)c2-c2ccc(Oc3ccccc3)cc2)CC1` [HBr-NF1, 1-(4-{[6-Amino-5-(4-phenoxy-phenyl)-pyrimidin-4-ylamino]-methyl}-4-fluoro-piperidin-1-yl)-propenone], the “Dissolution levels in FaSSIF pH 6.5” value in data set [1] (30 min) is reported as 23 μg/mL; in data set [1] (60 min), 27 μg/mL. Further, the “Dissolution level (2 h) in FaSSIF, factor higher than A1” value (from here on “Dissolution level (2 h) in FaSSIF”) in data set [1] is given as around 3. The “Hygroscopicity classification acc. to Ph. Eur. criteria (section 5.11.)” value in data set [2] is on record as “slightly hygroscopic”. In addition, the Water uptake levels is on record as at most 1 % m/m in data set [2] (setting [4]) and at most 5 % m/m in data set [2] (setting [5]).
As for `C=CC(=O)N1CCC(F)(CNc2ncnc(N)c2-c2ccc(Oc3ccccc3)cc2)CC1` [HCl-NF1, 1-(4-{[6-Amino-5-(4-phenoxy-phenyl)-pyrimidin-4-ylamino]-methyl}-4-fluoro-piperidin-1-yl)-propenone], the results for the “Dissolution levels in FaSSIF pH 6.5” value in data set [1] (30 min) and in data set [1] (60 min) were 55 μg/mL and 43 μg/mL, respectively. Moreover, the “Dissolution level (2 h) in FaSSIF” value in data set [1] is around 4. Also, in data set [2], the “Hygroscopicity classification acc. to Ph. Eur. criteria (section 5.11.)” value is on record as “slightly hygroscopic”. Also, the Water uptake levels in data set [2] (setting [4]) was at most 1 % m/m; in data set [2] (setting [5]) it was at most 5 % m/m.
For the compound `C=CC(=O)N1CCC(F)(CNc2ncnc(N)c2-c2ccc(Oc3ccccc3)cc2)CC1` [Oxalate-NF1, 1-(4-{[6-Amino-5-(4-phenoxy-phenyl)-pyrimidin-4-ylamino]-methyl}-4-fluoro-piperidin-1-yl)-propenone], the results for the “Dissolution levels in FaSSIF pH 6.5” value in data set [1] (30 min) and in data set [1] (60 min) were 22 μg/mL and 39 μg/mL, respectively. In addition, the “Dissolution level (2 h) in FaSSIF” value in data set [1] (listed as Oxalate salt form NF1) is on record as around 4. Moreover, in data set [2], the “Hygroscopicity classification acc. to Ph. Eur. criteria (section 5.11.)” value was “slightly hygroscopic”. Besides, the Water uptake levels was at most 1 % m/m in data set [2] (setting [4]) and at most 5 % m/m in data set [2] (setting [5]).
On to `C=CC(=O)N1CCC(F)(CNc2ncnc(N)c2-c2ccc(Oc3ccccc3)cc2)CC1` [Mesylate-NF1, 1-(4-{[6-Amino-5-(4-phenoxy-phenyl)-pyrimidin-4-ylamino]-methyl}-4-fluoro-piperidin-1-yl)-propenone], for which the “Hygroscopicity classification acc. to Ph. Eur. criteria (section 5.11.)” value in data set [2] is recorded as “slightly hygroscopic”. In addition, the Water uptake levels is recorded as at most 1 % m/m in data set [2] (setting [4]) and at most 5 % m/m in data set [2] (setting [5]).
For orientation: solubility (thermodynamic) means the concentration in solution at equilibrium with solid. Consider `C=CC(=O)N1CCC(F)(CNc2ncnc(N)c2-c2ccc(Oc3ccccc3)cc2)CC1` [Free base form A1, 1-(4-{[6-Amino-5-(4-phenoxy-phenyl)-pyrimidin-4-ylamino]-methyl}-4-fluoro-piperidin-1-yl)-propenone], for which the solubility (thermodynamic) at 24 h was around 17 µg/mL (≈ 38 µM) in data set [3] (FaSSIF (Fasted-State Simulated Intestinal Fluid), pH 6.5, fassif, Fasted-State Simulated Intestinal Fluid pH 6.5, read-out: Thermodynamic solubility FaSSIF pH 6.5) and around 1 µg/mL (≈ 2.23 µM) in data set [3] (USP Phosphate buffer, pH 7.4, aqueous buffer, USP Phosphate buffer pH 7.4, read-out: Thermodynamic solubility PBS buffer 7.4). Besides, the “Dissolution levels in FaSSIF pH 6.5” value in data set [1] (30 min) is 16 μg/mL; in data set [1] (60 min), 17 μg/mL; in data set [1] (120 min (2 h)), 17 μg/mL; in data set [1] (120 min (2 h), listed as form A1), “approx. 17 μg/mL”. In addition, the “Hygroscopicity classification acc. to Ph. Eur. criteria (section 5.11.)” value in data set [2] was “slightly hygroscopic”. For the same compound, the Water uptake levels is on record as at most 1 % m/m in data set [2] (setting [4]) and at most 2 % m/m in data set [2] (setting [5]).
Consider `C=CC(=O)N1CCC(F)(CNc2ncnc(N)c2-c2ccc(Oc3ccccc3)cc2)CC1` [Maleate-NF1, 1-(4-{[6-Amino-5-(4-phenoxy-phenyl)-pyrimidin-4-ylamino]-methyl}-4-fluoro-piperidin-1-yl)-propenone], for which the “Hygroscopicity classification acc. to Ph. Eur. criteria (section 5.11.)” value in data set [2] was “slightly hygroscopic”. Further, the Water uptake levels is recorded as at most 1 % m/m in data set [2] (setting [4]) and at most 5 % m/m in data set [2] (setting [5]).
With `C=CC(=O)N1CCC(F)(CNc2ncnc(N)c2-c2ccc(Oc3ccccc3)cc2)CC1` [HBr-NF2, 1-(4-{[6-Amino-5-(4-phenoxy-phenyl)-pyrimidin-4-ylamino]-methyl}-4-fluoro-piperidin-1-yl)-propenone], the “Hygroscopicity classification acc. to Ph. Eur. criteria (section 5.11.)” value in data set [2] was “slightly hygroscopic”. Moreover, the values for the Water uptake levels in data set [2] (setting [4]) and in data set [2] (setting [5]) were at most 1 % m/m and at least 5 % m/m, respectively.
Take `C=CC(=O)N1CCC(F)(CNc2ncnc(N)c2-c2ccc(Oc3ccccc3)cc2)CC1` [Free base form A2, 1-(4-{[6-Amino-5-(4-phenoxy-phenyl)-pyrimidin-4-ylamino]-methyl}-4-fluoro-piperidin-1-yl)-propenone]: the “Thermodynamic solubility FaSSIF pH 6.5” value in data set [3] (Fasted-State Simulated Intestinal Fluid pH 6.5) is on record as 10 μg/mL; in data set [3] (Fasted-State Simulated Intestinal Fluid pH 6.5, listed as form A2), “approx. 10 μg/mL”. Also, the “Thermodynamic solubility PBS buffer 7.4” value in data set [3] (USP Phosphate buffer pH 7.4) is 2 µg/mL; in data set [3] (USP Phosphate buffer pH 7.4, listed as form A2) it was “approx. 2 μg/mL”. For the same compound, the “Dissolution levels in FaSSIF pH 6.5” value in data set [1] (30 min) was 7 μg/mL; in data set [1] (60 min), 8 μg/mL; in data set [1] (120 min (2 h)), 8 μg/mL; in data set [1] (120 min (2 h), listed as form A2) it was “approx. 8 μg/mL”. In data set [2], the “Hygroscopicity classification acc. to Ph. Eur. criteria (section 5.11.)” value is “slightly hygroscopic”. Further, the Water uptake levels in data set [2] (setting [4]) is at most 1 % m/m; in data set [2] (setting [5]), at most 2 % m/m.
In the case of `C=CC(=O)N1CCC(F)(CNc2ncnc(N)c2-c2ccc(Oc3ccccc3)cc2)CC1` [Fumarate-NF1, 1-(4-{[6-Amino-5-(4-phenoxy-phenyl)-pyrimidin-4-ylamino]-methyl}-4-fluoro-piperidin-1-yl)-propenone], the “Dissolution levels in FaSSIF pH 6.5” value in data set [1] (30 min) is reported as 14 μg/mL; in data set [1] (60 min), 18 μg/mL. Further, the “Dissolution level (2 h) in FaSSIF” value in data set [1] (listed as Fumarate salt form NF1) is given as around 2. For the same compound, the “Hygroscopicity classification acc. to Ph. Eur. criteria (section 5.11.)” value in data set [2] was “slightly hygroscopic”. Also, the results for the Water uptake levels in data set [2] (setting [4]) and in data set [2] (setting [5]) were at most 1 % m/m and at least 5 % m/m, respectively.

The record behind these values is patent publication US11878967B2, “Crystalline forms of 1-(4-{[6-amino-5-(4-phenoxy-phenyl)-pyrimidin-4-ylamino]-methyl}-4-fluoro-piperidin-1-yl)-propenone, salt forms thereof, and processes to obtain” (Merck Patent GmbH, priority 2018, dated 2024).
